Laboratory results as given in patent US20250002608A1, “TREATMENT OF PAIN” (UTI Limited Partnership, priority 2021, published 2025).

Key:
small DRG neurons = test: Excitability of small DRG neurons exposed to ALKAL2 (current clamp); type: cell-based, mouse; conditions: for resting membrane potential (RMP): small DRG neurons, n=13
Description: DRG neurons were harvested from adult mice and enzymatically dissociated in Hank's balanced salt solution (HBSS) containing 2 mg/ml collagenase type I and 4 mg/ml dispase (Invitrogen) for 45 min at 37° C. […] Electrophysiological recordings were conducted using an external solution containing (in mM): 140.0 NaCl, 1.5 CaCl2, 2.0 MgCl2, 5.0 KCl, 10.0 HEPES, 10.0 D-glucose, pH 7.4 adjusted with NaOH, on the stage of an inverted epi-fluorescence microscope (Olympus IX51). DRG neuron were recorded based on size, knowing that TRPV1 is expressed in small neurons […], and pHluorin fluorescent signal. Action potentials were recorded using current clamp. Borosilicate glass (Harvard Apparatus Ltd.) pipettes were pulled and polished to 2-5 MQ resistance with a DMZ-Universal Puller (Zeitz-Instruments GmbH.) and filled with an internal solution containing (in mM): 140.0 KCl, 5.00 NaCl, 1 CaCl2, 1.0 EGTA, 10.0 HEPES, 1.0 MgCl2, 3.0 ATP Na2, pH 7.3 adjusted with KOH. All solutions were prepared and used at room temperature (22±2° C.) and their osmolarity adjusted to 310 mOsm. […] Recordings were performed using an Axopatch 200B amplifier (Axon Instruments, Foster City, CA, USA). Current-clamp protocols were applied using pClamp 10.4 software (Axon Instruments). […] Average DRG neuron capacitance was 12.45±0.85 pF. […] For prolonged ALKAL2 treatment, neurons were incubated with a low concentration of 10 nM for 16 hours.

[1] = system: small (<20 μm) DRG neurons; test: Neurite outgrowth of DRG neurons co-cultured with ALKAL2-transfected HEK cells; type: cell-based, mouse
From the text: Previous work has shown that the ALK receptor plays a central role in the development of neural-crest derived cells and neurite outgrowth (18, 19, 37, 38). Using a co-culture system, we tested whether secreted ALKAL2 is able to activate ALK on DRG neurons, thus promoting neurite outgrowth through an autocrine/paracrine signaling process. In this assay, HEK cell monolayers seeded in the upper chamber of a transwell were transfected with ALKAL2, and then placed above acutely dissociated DRG neurons seeded into the lower chamber (FIG. 4A). DRG neurons were exposed to HEK-secreted ALKAL2 for a further 16 hours, after which, neurite growth was assessed on small and medium size neurons (FIG. 4A).
DRG neurons were harvested from adult mice and enzymatically dissociated in Hank's balanced salt solution (HBSS) containing 2 mg/ml collagenase type I and 4 mg/ml dispase (Invitrogen) for 45 min at 37° C. DRGs were rinsed twice in HBSS and once in Neurobasal A culture medium (Thermo Fisher Scientific) supplemented with 2% B-27, 10% heat-inactivated fetal bovine serum (HI-FBS), 100 μg/ml streptomycin, 100 U/ml penicillin, 100 ng/ml of Nerve Growth Factor (NGF) and 100 ng/ml glial cell-derived neurotrophic factor (GDNF) (all from Invitrogen). Individual neurons were dispersed by trituration through a fire-polished glass Pasteur pipette in 4 ml media and cultured overnight at 37° C. with 5% CO2 in 96% humidity on glass coverslips previously treated with 25% Poly-Ornithine and Laminin (both from Sigma).
For co-culture experiments, human embryonic kidney (HEK) 293 tsA-201 cells were grown to 80% confluence at 37° C. (5% CO2) in Dulbecco's modified Eagle's medium (+10% fetal bovine serum, 200 units/ml penicillin and 0.2 mg/ml streptomycin (Invitrogen, Carlsbad, CA, USA)) in the transwell of a 12-well cell culture plate (Gibco). Cells were transfected with 0.5 or 1 μg of ALKAL2 plasmid (Genomics, ABIN3292379) using the calcium phosphate method and washed 12 hours after transfection. After another 8 hours, isolated DRG neurons plated on glass coverslips were placed in the bottom chamber of the 12-well plate and the media was changed to Neurobasal A culture medium (see above). Electrophysiological recordings or immunohistochemistry were conducted 24 hours later.
For the neurite outgrowth assay, cultured DRG neurons were either treated with increasing concentrations ([…], 1 nM, 10 nM, 100 nM and 1 μM) of recombinant mouse ALKAL2 (MyBioSource LLC, MBS14253) or co-cultured with ALKAL2 expressing HEK cells (see above) in Neurobasal A medium. After 24 h, the cells were washed twice with HBSS, fixed in 4% PFA for 15 min., incubated in blocking solution (PBS+1% BSA) for 30 min. and then immunostained with anti-β-tubulin III antibody (rabbit, 1/1000, Sigma-Aldrich) overnight at 4° C. Cells were washed in PBS twice then incubated with a goat-anti rabbit IgG conjugated to Alexa Fluor 488 (1/2000, Invitrogen) for 1 h. After several washes, coverslips were mounted on slides and confocal images acquired. Alexa-488 antibody was visualized by excitation with an argon laser […] and emission detected using a long-pass 530 nm filter. Alexa-555 antibody was visualized by excitation at 543 nm with a HeNe laser, and emission detected using a 585-615 nm band-pass filter.

ALK [2] = conditions: human, in vivo; cited from earlier work
TRPV1 wild type = molecular target: T1, TRPV1 wild type (Homo sapiens, UniProt Q8NER1); test: Capsaicin-evoked TRPV1 current (I-V ramp) in HEK cells transfected with TRPV1 wild type; type: cell-based; conditions: capsaicin 100 nM, TRPV1 WT
T1 construct: expressed in transfected cells; host or cells: HEK cells
T1 sequence (Q8NER1 whole entry, species assumed): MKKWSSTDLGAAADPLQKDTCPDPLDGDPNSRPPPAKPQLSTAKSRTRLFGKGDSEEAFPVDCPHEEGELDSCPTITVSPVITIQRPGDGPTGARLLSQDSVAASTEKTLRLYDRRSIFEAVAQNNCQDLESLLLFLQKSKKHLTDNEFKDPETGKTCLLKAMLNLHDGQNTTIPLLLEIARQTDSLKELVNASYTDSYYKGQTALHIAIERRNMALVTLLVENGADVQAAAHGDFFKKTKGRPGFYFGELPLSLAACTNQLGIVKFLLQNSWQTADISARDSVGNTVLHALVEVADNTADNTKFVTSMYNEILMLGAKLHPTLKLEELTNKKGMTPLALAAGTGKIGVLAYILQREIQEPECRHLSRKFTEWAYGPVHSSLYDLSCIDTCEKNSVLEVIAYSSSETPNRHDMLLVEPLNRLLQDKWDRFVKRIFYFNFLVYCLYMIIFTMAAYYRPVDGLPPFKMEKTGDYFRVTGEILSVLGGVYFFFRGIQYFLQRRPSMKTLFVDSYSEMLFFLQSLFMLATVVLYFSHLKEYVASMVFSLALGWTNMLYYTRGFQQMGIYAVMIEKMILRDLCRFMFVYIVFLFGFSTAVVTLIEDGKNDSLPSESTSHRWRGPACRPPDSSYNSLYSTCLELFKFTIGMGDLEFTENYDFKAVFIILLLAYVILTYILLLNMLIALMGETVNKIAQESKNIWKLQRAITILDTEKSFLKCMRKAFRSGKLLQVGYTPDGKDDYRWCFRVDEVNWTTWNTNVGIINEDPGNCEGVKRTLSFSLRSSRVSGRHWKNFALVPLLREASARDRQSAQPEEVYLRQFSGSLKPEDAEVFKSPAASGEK

TRPV1-pHluorin [3] = test: Capsaicin-evoked TRPV1 current (I-V ramp) in HEK cells transfected with TRPV1-pHluorin; type: cell-based; conditions: capsaicin 100 nM
TRPV1-pHluorin [4] = molecular target: T2, TRPV1-pHluorin (Mus musculus, UniProt Q704Y3); test: Capsaicin dose-response by calcium imaging on DRG neurons from TRPV1-pHluorin mice; type: cell-based; conditions: read-out: EC50 of dose-response curve evoked by capsaicin, room temperature (22° C.), n=28
T2 construct: fused on or other part: superecliptic pHluorin (ecliptic GFP, EcGFP) inserted into the extracellular turret between His and Lys (615/616; H614/K615 elsewhere in the source)
T2 sequence (Q704Y3 1-615 limits assumed): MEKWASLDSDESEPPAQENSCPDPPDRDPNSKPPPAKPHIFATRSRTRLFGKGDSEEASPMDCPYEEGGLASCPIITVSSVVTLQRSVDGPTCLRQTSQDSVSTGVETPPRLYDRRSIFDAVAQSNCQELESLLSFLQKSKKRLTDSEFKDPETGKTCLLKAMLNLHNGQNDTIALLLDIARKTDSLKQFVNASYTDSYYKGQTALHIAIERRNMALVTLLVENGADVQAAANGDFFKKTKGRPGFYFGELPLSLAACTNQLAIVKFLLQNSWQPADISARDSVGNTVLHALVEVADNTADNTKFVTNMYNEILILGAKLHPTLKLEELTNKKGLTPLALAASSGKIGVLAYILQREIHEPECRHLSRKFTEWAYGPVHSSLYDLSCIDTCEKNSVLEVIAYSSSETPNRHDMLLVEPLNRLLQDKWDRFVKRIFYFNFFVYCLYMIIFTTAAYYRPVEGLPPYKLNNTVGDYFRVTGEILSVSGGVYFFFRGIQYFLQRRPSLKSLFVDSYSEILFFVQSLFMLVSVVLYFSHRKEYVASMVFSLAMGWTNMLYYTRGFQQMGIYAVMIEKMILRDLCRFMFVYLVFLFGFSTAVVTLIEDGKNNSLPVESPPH
T2 sequence (Q704Y3 616-839 limits assumed): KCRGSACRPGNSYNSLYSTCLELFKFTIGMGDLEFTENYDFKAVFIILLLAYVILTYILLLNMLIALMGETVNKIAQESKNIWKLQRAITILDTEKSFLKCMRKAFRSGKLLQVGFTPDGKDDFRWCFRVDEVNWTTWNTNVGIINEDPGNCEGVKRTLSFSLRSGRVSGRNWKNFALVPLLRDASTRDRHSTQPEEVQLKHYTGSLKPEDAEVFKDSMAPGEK

[5] = system: DRG neurons from TRPV1-pHluorin mice; test: Current-clamp recording of DRG neurons from TRPV1-pHluorin mice exposed to capsaicin; type: cell-based, mouse; conditions: capsaicin 100 nM
Description: (§1) DRG neurons were harvested from adult mice and enzymatically dissociated in Hank's balanced salt solution (HBSS) containing 2 mg/ml collagenase type I and 4 mg/ml dispase (Invitrogen) for 45 min at 37° C. […] Electrophysiological recordings were conducted using an external solution containing (in mM): 140.0 NaCl, 1.5 CaCl2, 2.0 MgCl2, 5.0 KCl, 10.0 HEPES, 10.0 D-glucose, pH 7.4 adjusted with NaOH, on the stage of an inverted epi-fluorescence microscope (Olympus IX51). DRG neuron were recorded based on size, knowing that TRPV1 is expressed in small neurons […], and pHluorin fluorescent signal. Action potentials were recorded using current clamp. Borosilicate glass (Harvard Apparatus Ltd.) pipettes were pulled and polished to 2-5 MQ resistance with a DMZ-Universal Puller (Zeitz-Instruments GmbH.) and filled with an internal solution containing (in mM): 140.0 KCl, 5.00 NaCl, 1 CaCl2, 1.0 EGTA, 10.0 HEPES, 1.0 MgCl2, 3.0 ATP Na2, pH 7.3 adjusted with KOH. All solutions were prepared and used at room temperature (22±2° C.) and their osmolarity adjusted to 310 mOsm. […] Recordings were performed using an Axopatch 200B amplifier (Axon Instruments, Foster City, CA, USA). Current-clamp protocols were applied using pClamp 10.4 software (Axon Instruments). […] Average DRG neuron capacitance was 12.45±0.85 pF. […]

DRG neurons from WT mice = test: Current-clamp recording of DRG neurons from WT mice exposed to capsaicin; type: cell-based, mouse; conditions: capsaicin 100 nM
Description: as §1

[6] = molecular target: anaplastic lymphoma kinase (ALK) receptor, endogenous on mouse DRG neurons and in the mouse spinal dorsal horn (mouse) (UniProt P97793); test: cell-based or functional assay
Chain of anaplastic lymphoma kinase (ALK) receptor, endogenous on mouse DRG neurons and in the mouse spinal dorsal horn (mouse) (P97793 19-1621): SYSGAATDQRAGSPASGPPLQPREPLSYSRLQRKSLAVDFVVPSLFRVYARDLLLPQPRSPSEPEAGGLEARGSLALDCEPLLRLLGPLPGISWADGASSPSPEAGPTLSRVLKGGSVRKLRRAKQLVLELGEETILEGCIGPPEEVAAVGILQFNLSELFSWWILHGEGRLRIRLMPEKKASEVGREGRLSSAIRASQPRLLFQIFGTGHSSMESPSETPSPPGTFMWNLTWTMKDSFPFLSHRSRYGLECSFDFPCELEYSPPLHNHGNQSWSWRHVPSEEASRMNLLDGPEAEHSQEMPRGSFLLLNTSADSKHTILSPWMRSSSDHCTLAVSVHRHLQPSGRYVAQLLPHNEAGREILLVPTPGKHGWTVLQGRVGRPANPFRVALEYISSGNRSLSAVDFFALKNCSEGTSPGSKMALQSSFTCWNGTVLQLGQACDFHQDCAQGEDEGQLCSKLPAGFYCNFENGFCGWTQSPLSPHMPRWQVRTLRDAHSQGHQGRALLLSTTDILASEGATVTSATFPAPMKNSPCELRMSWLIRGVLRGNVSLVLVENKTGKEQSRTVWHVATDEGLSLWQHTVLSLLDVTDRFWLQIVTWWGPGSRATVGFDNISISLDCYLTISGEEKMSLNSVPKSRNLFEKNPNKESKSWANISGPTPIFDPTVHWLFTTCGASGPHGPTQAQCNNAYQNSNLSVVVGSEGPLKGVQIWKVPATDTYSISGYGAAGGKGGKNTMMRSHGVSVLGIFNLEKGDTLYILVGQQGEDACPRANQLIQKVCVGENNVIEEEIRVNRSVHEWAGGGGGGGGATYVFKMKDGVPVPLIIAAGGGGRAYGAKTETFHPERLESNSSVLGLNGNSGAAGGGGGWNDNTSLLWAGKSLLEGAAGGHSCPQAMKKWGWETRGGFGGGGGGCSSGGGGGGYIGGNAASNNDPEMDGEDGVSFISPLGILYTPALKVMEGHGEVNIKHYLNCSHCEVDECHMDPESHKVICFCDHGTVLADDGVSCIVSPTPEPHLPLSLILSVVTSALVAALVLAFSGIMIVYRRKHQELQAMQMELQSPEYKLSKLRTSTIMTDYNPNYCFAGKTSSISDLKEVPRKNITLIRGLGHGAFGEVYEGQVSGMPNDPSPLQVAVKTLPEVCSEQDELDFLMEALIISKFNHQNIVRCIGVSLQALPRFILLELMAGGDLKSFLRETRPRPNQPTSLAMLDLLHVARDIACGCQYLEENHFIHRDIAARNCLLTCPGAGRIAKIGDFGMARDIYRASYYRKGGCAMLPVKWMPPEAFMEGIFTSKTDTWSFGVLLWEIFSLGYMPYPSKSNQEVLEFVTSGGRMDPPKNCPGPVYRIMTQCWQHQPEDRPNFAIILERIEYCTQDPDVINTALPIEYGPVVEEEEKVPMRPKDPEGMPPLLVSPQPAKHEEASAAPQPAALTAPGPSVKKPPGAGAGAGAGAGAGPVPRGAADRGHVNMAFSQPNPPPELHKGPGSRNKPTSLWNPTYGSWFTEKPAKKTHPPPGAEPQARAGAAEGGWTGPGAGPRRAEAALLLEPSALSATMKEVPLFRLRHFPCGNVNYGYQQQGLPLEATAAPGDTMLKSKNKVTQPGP

ALK [7] = molecular target: T3, ALK (Mus musculus, UniProt P97793); test: Thermal hyperalgesia induced by intrathecal ALKAL2; type: in vivo
T3 construct: from tissue; host or cells: living mice, spinal dorsal horn
T3 sequence (P97793 19-1621): as above
Description: (§2) Intrathecal injections were performed in conscious mice. Briefly, mice were manually restrained, the dorsal fur of each mouse was shaved, the spinal column was arched, and a 30-gauge needle attached in a PE20 Polyethylene tube to a 25 μl Hamilton micro syringe (Hamilton, Birmingham, UK) was inserted into the subarachnoid space between the L4 and L5 vertebrae. Accurate positioning of the needle tip was confirmed by a characteristic tail-flick response of animal when the needle if correctly positioned. Intrathecal injections of 10 μl were delivered over a period of 5 seconds.
Three trials for each mouse were performed.

ALK [8] = molecular target: T3, ALK; test: pALK immunostaining in the spinal dorsal horn after intrathecal ALKAL2; type: in vivo; conditions: 30 min following intrathecal ALKAL2 injection
Description: as §2

[9] = ALKAL2 co-culture in the presence of Lorlatinib 1 μM
[10] = ALKAL2 plasmid co-culture 16 h, small DRG neurons
[11] = ALKAL2 transfected condition vs control

Molecule: C[C@H]1Oc2cc(cnc2N)-c2c(nn(C)c2C#N)CN(C)C(=O)c2ccc(F)cc21 [Lorlatinib]
- action potential (AP) threshold (small DRG neurons; ALKAL2+Lorlatinib group, n=9): −31.59±1.76 mV
- resting membrane potential (RMP) (small DRG neurons; ALKAL2+Lorlatinib group): −54.5±1.53 mV
- neurites per neuron [1, 9]: 8.7±1.9
- number of branch points per neuron [1, 9]: 3.6±0.5
- total neurite length per neuron [1, 9]: 83±8.8 μm

Molecule: Cc1cc(Nc2ncc(Cl)c(Nc3ccccc3S(=O)(=O)C(C)C)n2)c(OC(C)C)cc1C1CCNCC1 [Ceritinib]
- effect on pain in NSCL cancer patients (ALK [2]): could reduce chest, arm and shoulder pain

Molecule: COc1cc(CNC(=O)CCCC/C=C/C(C)C)ccc1O [capsaicin]
- peak inward current at −100 mV (TRPV1 wild type): −10.2±1.63 pA/pF
- peak outward current at +100 mV (TRPV1 wild type): 62.82±11.72 pA/pF
- peak inward current at −100 mV (TRPV1-pHluorin [3]): −7.33±2.91 pA/pF
- peak outward current at +100 mV (TRPV1-pHluorin [3]): 61.36±11.97 pA/pF
- EC50 (TRPV1-pHluorin [4]): 1060 ± 90 nM
- resting membrane potential after application of capsaicin [5]: −38.01±2.17 mV
- AP frequency after capsaicin ([5]; 400 pA current injection): 17.22±0.84 Hz
- resting membrane potential after application of capsaicin (DRG neurons from WT mice): −36.61±1.83 mV
- AP frequency after capsaicin (DRG neurons from WT mice; 400 pA current injection): 18.56±2.44 Hz

B1: ALKAL2 secreted by HEK 293 tsA-201 cells transfected with ALKAL2 plasmid (Genomics, ABIN3292379) (ligand, UniProt Q6UX46 25-152, looked up, species assumed)
ALK and LTK ligand 2: GAEPREPADGQALLRLVVELVQELRKHHSAEHKGLQLLGRDCALGRAEAAGLGPSPEQRVEIVPRDLRMKDKFLKHLTGPLYFSPKCSKHFHRLYHNTRDCTIPAYYKRCARLLTRLAVSPVCMEDKQ
- total neurite length per neuron [6]: 267 µm
- total neurite length per neuron, transwell co-culture [6]: 5 fold
- total neurites in small (<20 µm) DRG neurons (neurites per neuron) [6]: 18.6

B2: ALKAL2: ligand of the ALK receptor; recombinant mouse ALKAL2 or secreted by HEK cells transfected with ALKAL2 plasmid (protein)
chain: QSRGPADRQTLLRLLVELVQELKKFHIGDSKRLQLLGESDFALGRREATDYGADQEEQRVEIVPRDLRMKDKFLKHLTGPLYFSPKCSKHFHRLYHNTRDCTIPAYYKRCARLLTRLAVSPMCMER
- action potential (AP) threshold (small DRG neurons; ALKAL2 group, n=11): −40.57±2.88 mV
- resting membrane potential (RMP) (small DRG neurons; ALKAL2 group): −55.15±2.21 mV
- AP frequency evoked by ascending steps of injected current (small DRG neurons; recombinant ALKAL2 for 16 h (10 nM)): pronounced increase
- time after administration at which thermal hypersensitivity is back to baseline (ALK [7]; intrathecal ALKAL2, n=5 each group): 72 h
- thermal hyperalgesia in naïve mice (ALK [7]; recombinant ALKAL2 intrathecal, 0.01, 0.1, 1 uM): induced thermal hyperalgesia lasting several hours in a dose-dependent manner
- pALK in the spinal dorsal horn (ALK [8]): increase in pALK
- number of branch points per neuron [1, 10]: 8.9±0.9
- total neurite length per neuron [1, 10]: 267.1±2.2 μm
- total neurites per neuron [1, 10]: 18.6±1.2
- increase in the total neurite length per neuron [1, 11]: five-fold increase
- increase in the total number of neurites (primary and secondary branches) and branching points [1, 11]: two-fold increase
